Reference: patent US20050101595A1, “N-containing cycloalkyl-substituted amino-thiazole derivatives and pharmaceutical compositions for inhibiting cell proliferation and methods for their use” (PFIZER INC., priority 2003, published 2005)
Structures can show the parent of a compound that is named as a salt.

Experiments:
[1] = target: CDK2/Cyclin A (Homo sapiens, UniProt P24941); experiment: Inhibition of CDK2/Cyclin A Retinoblastoma Kinase Activity; assay type: biochemical; settings: at 0.03 μM
Method in brief: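 Baculovirus-expressed CDK2 complexed with proteolyzed cyclin A (10 or 19 nM), Rb fragment substrate, 25 μM [32P/33P]ATP, HEPES pH 7.4, 30 °C for 60 or 75 min under initial-rate conditions. Filter capture and phosphorimager readout; apparent Ki fitted to competitive or tight-binding competitive inhibition.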

[2] = target: human CDK4 and genetically truncated (1-264) cyclin D3 (Homo sapiens, UniProt P11802); experiment: Inhibition of CDK4/Cyclin D Retinoblastoma Kinase Activity; assay type: biochemical; settings: at 0.03 μM
Sequence of human CDK4 and genetically truncated (1-264) cyclin D3 (P11802 whole entry, the tested form may be a part): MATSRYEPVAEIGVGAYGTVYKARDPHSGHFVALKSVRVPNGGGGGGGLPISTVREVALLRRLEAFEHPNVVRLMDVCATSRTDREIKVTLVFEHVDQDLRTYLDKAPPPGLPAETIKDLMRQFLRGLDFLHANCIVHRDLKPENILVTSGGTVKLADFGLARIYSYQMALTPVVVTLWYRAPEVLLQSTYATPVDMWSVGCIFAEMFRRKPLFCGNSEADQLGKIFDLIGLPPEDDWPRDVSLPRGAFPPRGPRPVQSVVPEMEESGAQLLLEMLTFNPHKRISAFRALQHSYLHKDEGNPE
Sequence of human CDK4 and genetically truncated (1-264) cyclin D3 (P30281 1-264 partner): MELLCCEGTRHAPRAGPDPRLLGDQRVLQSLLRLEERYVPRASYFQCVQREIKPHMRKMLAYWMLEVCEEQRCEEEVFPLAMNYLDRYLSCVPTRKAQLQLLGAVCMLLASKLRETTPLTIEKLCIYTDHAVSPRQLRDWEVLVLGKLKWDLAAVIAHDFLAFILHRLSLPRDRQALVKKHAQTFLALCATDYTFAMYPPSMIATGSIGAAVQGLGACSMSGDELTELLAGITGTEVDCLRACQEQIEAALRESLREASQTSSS
Method in brief: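 Human CDK4/truncated cyclin D3 (1-264) complex from baculovirus-infected insect cells, 5 nM, phosphorylating Rb fragment (residues 386-928, His-tagged) with 25 μM [32/33P]ATP in HEPES pH 7.4, MgCl2, 2% DMSO at 30° C. for 20 min (60 min for tight binders). Filter-captured radioactivity by phosphorimager; apparent Ki from competitive or tight-binding fits.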

[3] = system: HCT-116 cell line; experiment: Inhibition of cell growth, tetrazolium salt (MTT) assay; assay type: cell-based; settings: HCT-116 cells
Method in brief: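 MTT colorimetric viability: three-to-five-day compound exposure in 0.5% (v/v) DMSO at 37° C, MTT 0.2 mg/mL for the last 4 h, A540 compared with vehicle-treated cells.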

Compound | melting point [°C] | CDK2 % Inhibition at 0.03 μM [1] [%] | CDK4 % Inhibition at 0.03 μM [2] [%] | HCT-116 % Inhibition at 0.1 μM [3] [%] | HCT-116 5 Inhibition at 0.25 μM [3]
CN(C)CCCc1ccc(S(=O)(=O)N2CCC(Nc3nc(N)c(C(=O)c4c(F)cccc4F)s3)CC2)cc1 (as salt: salt) [Example I10, 1-(4-Amino-2-{1-[4-(3-dimethylamino-propyl)-benzenesulfonyl]-piperidin-4-ylamino}-thiazol-5-yl)-1-(2,6-difluoro-phenyl)-methanone D-Glucuronic Acid Salt] | 117 to 120 | – | – | – | –
Nc1nc(NC2CCN(C(=O)c3ccc(-c4ccccc4)cc3)CC2)sc1C(=O)c1c(F)cccc1F [Example R149] | – | 28 | 51 | 11 | 43
CSc1ccc(C(=O)N2CCC(Nc3nc(N)c(C(=O)c4c(F)cccc4F)s3)CC2)cc1 [Example R150] | – | 40 | 62 | 2 | 39
COC(=O)c1ccc(C(=O)N2CCC(Nc3nc(N)c(C(=O)c4c(F)cccc4F)s3)CC2)cc1 [Example R151] | – | 24 | 39 | 0 | 43
Nc1nc(NC2CCN(C(=O)c3ccc(C(F)(F)F)cc3)CC2)sc1C(=O)c1c(F)cccc1F [Example R152] | – | 17 | 41 | 0 | 40
CC(C)(C)c1ccc(C(=O)N2CCC(Nc3nc(N)c(C(=O)c4c(F)cccc4F)s3)CC2)cc1 [Example R153] | – | 37 | 58 | 0 | 44
Cc1ccc(C(=O)N2CCC(Nc3nc(N)c(C(=O)c4c(F)cccc4F)s3)CC2)cc1 [Example R154] | – | 50 | 63 | 0 | 27
COc1cc(C(=O)N2CCC(Nc3nc(N)c(C(=O)c4c(F)cccc4F)s3)CC2)ccc1C [Example R155] | – | 45 | 67 | 0 | 67
C=Cc1ccc(C(=O)N2CCC(Nc3nc(N)c(C(=O)c4c(F)cccc4F)s3)CC2)cc1 [Example R156] | – | 65 | 89 | 0 | 43
CCc1ccc(C(=O)N2CCC(Nc3nc(N)c(C(=O)c4c(F)cccc4F)s3)CC2)cc1 [Example R157] | – | 22 | 47 | 0 | 42
CCCCCc1ccc(C(=O)N2CCC(Nc3nc(N)c(C(=O)c4c(F)cccc4F)s3)CC2)cc1 [Example R158] | – | 24 | 44 | 0 | 41
CC(Oc1ccccc1)C(=O)N1CCC(Nc2nc(N)c(C(=O)c3c(F)cccc3F)s2)CC1 (centres unmarked) [Example R159] | – | 14 | 36 | 0 | 46
CC(C(=O)N1CCC(Nc2nc(N)c(C(=O)c3c(F)cccc3F)s2)CC1)c1ccccc1 (centres unmarked) [Example R160] | – | 7 | 6 | 0 | 37
CC(=Cc1ccccc1)C(=O)N1CCC(Nc2nc(N)c(C(=O)c3c(F)cccc3F)s2)CC1 [Example R161] | – | 26 | 53 | 0 | 34
CCC(Oc1ccccc1)C(=O)N1CCC(Nc2nc(N)c(C(=O)c3c(F)cccc3F)s2)CC1 (centres unmarked) [Example R162] | – | 27 | 32 | 0 | 34
CCC(C(=O)N1CCC(Nc2nc(N)c(C(=O)c3c(F)cccc3F)s2)CC1)c1ccccc1 (centres unmarked) [Example R163] | – | 26 | 28 | 0 | 44
CCC(CC)C(=O)N1CCC(Nc2nc(N)c(C(=O)c3c(F)cccc3F)s2)CC1 [Example R164] | – | 9 | 19 | 0 | 41
CCCC(C)C(=O)N1CCC(Nc2nc(N)c(C(=O)c3c(F)cccc3F)s2)CC1 (centres unmarked) [Example R165] | – | 3 | 22 | 0 | 42
CCCC(CCC)C(=O)N1CCC(Nc2nc(N)c(C(=O)c3c(F)cccc3F)s2)CC1 [Example R166] | – | 17 | 37 | 0 | 44
CCCCC(C)C(=O)N1CCC(Nc2nc(N)c(C(=O)c3c(F)cccc3F)s2)CC1 (centres unmarked) [Example R167] | – | −2 | 11 | 0 | 42
CCCCC(CC)C(=O)N1CCC(Nc2nc(N)c(C(=O)c3c(F)cccc3F)s2)CC1 (centres unmarked) [Example R168] | – | 6 | −4 | 0 | 42
Nc1nc(NC2CCN(C(=O)CNc3ccc(O)cc3)CC2)sc1C(=O)c1c(F)cccc1F [Example R169] | – | 22 | 40 | 0 | 39
CC(C)=CCCC(C)CC(=O)N1CCC(Nc2nc(N)c(C(=O)c3c(F)cccc3F)s2)CC1 (centres unmarked) [Example R170] | – | 21 | 22 | 0 | 23
CCC(C)CC(=O)N1CCC(Nc2nc(N)c(C(=O)c3c(F)cccc3F)s2)CC1 (centres unmarked) [Example R171] | – | 23 | 39 | 0 | 46
CCC(=O)N1CCC(Nc2nc(N)c(C(=O)c3c(F)cccc3F)s2)CC1 [Example R172] | – | 34 | 49 | 0 | 49
Nc1nc(NC2CCN(C(=O)CCOc3ccccc3)CC2)sc1C(=O)c1c(F)cccc1F [Example R173] | – | 23 | 43 | 0 | 43
Nc1nc(NC2CCN(C(=O)CCc3ccccc3)CC2)sc1C(=O)c1c(F)cccc1F [Example R174] | – | 21 | 42 | 0 | 48
COc1ccccc1CCC(=O)N1CCC(Nc2nc(N)c(C(=O)c3c(F)cccc3F)s2)CC1 [Example R175] | – | 19 | 41 | 0 | 47
COc1ccc(CCC(=O)N2CCC(Nc3nc(N)c(C(=O)c4c(F)cccc4F)s3)CC2)cc1 [Example R176] | – | 2 | 4 | 1 | 43
